Reference: PMC6409085, “Three odorant-binding proteins are involved in the behavioral response of Sogatella furcifera to rice plant volatiles” (PeerJ, 2019)
pIC50: −log10 of the molar value. Where “and” joins values, the source holds several entries; their conditions need not be identical. Equal entries are not always repeated.

What was measured:
S. furcifera adults = assay: Y-tube olfactometer behavioral trials; assay type: in vivo, Sogatella furcifera; conditions: odorant 50 µL/L vs hexane
Protocol: To test the effect of the rice odorants on the behavior of S. furcifera adults, a glass Y-tube olfactometer (inner diameter 2.0 cm, stem 13 cm, arms 10 cm, angle of arms 60°) according to the previously described ([Wang et al., 2014b]) was employed. An airtight cubic box (70 by 45 by 30 cm) was used to position Y-tube, and the Y-tube was lighted by a 30-W filament lamp 25 cm above it. Air that filtered through activated charcoal and humidified with doubly distilled water was pumped in both arms at a flow rate of 300 mL/min. Two filter paper strips (10 by 1 cm) containing 100 µL odorant source (50 µL/L) and 100 µL control hexane were placed in two holding chambers in the front of the olfactometer, respectively. A S. furcifera adult (2 days after emergence, starved for 0.5 h) was randomly chosen and placed in the stem of the Y-tube. Each insect was given 10 min to choose between the two arms of the Y-tube, the choice was noted if the planthopper reached one-half of the arms’ lengths and stayed in the arm for more than 1 min. Besides, S. furcifera was considered as having no orientation preference. Forty-five individuals were used for each compound, each insect used only once. And the dual-choice experiment was done in an environmentally controlled room (25 ± 1 °C and 50% RH). A Chi-squared test was used to analyze the behavioral assay data by using SPSS19.0 (SPSS Inc., Chicago, IL, USA) software.

SfurOBP11 = SfurOBP11 (Sogatella furcifera, UniProt V5T6E3); assay: biochemical; assay type: binding
Procedure, shortened: (§1)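 K1-NPN came from titrating 2.0 µM protein (50 mM Tris-HCl, pH 7.4) with 1-NPN. Odorants at 2-20 µM then competed against 2.0 µM protein plus 2.0 µM 1-NPN for 2 min, with excitation at 337 nm and emission recorded over 390-490 nm. IC50 values were converted to Ki via Ki = IC50/(1 + [1-NPN]/K1-NPN).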

SfurOBP3 = SfurOBP3 (Sogatella furcifera, UniProt V5T818); assay: biochemical; assay type: binding; conditions: for Fluorescence competitive binding assay, fluorescence intensity: OBP3, three replicate columns
Procedure, shortened: as §1

SfurOBP2 = SfurOBP2 (Sogatella furcifera, UniProt V5T759); assay: biochemical; assay type: binding
Procedure, shortened: as §1

SfurOBP1 = SfurOBP1 (Sogatella furcifera, UniProt V5T8N5); assay: biochemical; assay type: binding; conditions: for Fluorescence competitive binding assay, fluorescence intensity: OBP1, three replicate columns
Procedure, shortened: as §1

Chain of SfurOBP11 (V5T6E3 entry or part of it): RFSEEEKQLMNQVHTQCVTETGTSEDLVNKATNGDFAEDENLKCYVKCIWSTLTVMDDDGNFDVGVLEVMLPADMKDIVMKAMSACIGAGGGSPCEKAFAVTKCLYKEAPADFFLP
Chain of SfurOBP1 (V5T8N5 entry or part of it): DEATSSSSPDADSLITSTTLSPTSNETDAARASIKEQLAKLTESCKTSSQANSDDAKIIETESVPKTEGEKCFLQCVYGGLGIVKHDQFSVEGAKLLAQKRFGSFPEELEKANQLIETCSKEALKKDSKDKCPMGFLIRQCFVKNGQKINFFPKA
Chain of SfurOBP3 (V5T818 entry or part of it): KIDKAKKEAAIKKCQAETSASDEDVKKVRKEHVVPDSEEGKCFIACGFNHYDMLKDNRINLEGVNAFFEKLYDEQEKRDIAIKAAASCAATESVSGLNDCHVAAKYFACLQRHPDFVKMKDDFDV
Chain of SfurOBP2 (V5T759 entry or part of it): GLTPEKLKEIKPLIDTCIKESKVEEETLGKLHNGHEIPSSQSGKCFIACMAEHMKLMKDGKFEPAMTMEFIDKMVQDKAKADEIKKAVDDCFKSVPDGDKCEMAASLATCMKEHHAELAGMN

For CC(=O)c1ccccc1 [acetophenone], the “behavioral response of S. furcifera (in words)” value (S. furcifera adults) was “strongly attracted”, the “number of insects choosing hexane arm” value (S. furcifera adults; adults) was 11 and the “number of insects choosing volatilies arm” value (S. furcifera adults; adults) was 20. The “number of insects failed (no choice)” value (S. furcifera adults; adults) was 9, the pIC50 (SfurOBP11; SfurOBP11, protein and 1-NPN both 2.0 µM, competitor 2-20 µM, read-out: IC50) was under 4.70 and the “Fluorescence intensity, fluorescence competitive binding assay, OBP11” value (“Fluorescence intensity … OBP11” below) (SfurOBP11; ligand concentration 2, replicate 1) was 26535. For the same compound, the “Fluorescence intensity … OBP11” value (SfurOBP11; ligand concentration 2, replicate 2) was 26162, the “Fluorescence intensity … OBP11” value (SfurOBP11; ligand concentration 2, replicate 3) was 26541 and the “Fluorescence intensity … OBP11” value (SfurOBP11; ligand concentration 4, replicate 1) was 25394. For the same compound, the “Fluorescence intensity … OBP11” value (SfurOBP11; ligand concentration 4, replicate 2) was 26325, the “Fluorescence intensity … OBP11” value (SfurOBP11; ligand concentration 4, replicate 3) was 27262 and the “Fluorescence intensity … OBP11” value (SfurOBP11; ligand concentration 6, replicate 1) was 26264. For the same compound, the “Fluorescence intensity … OBP11” value (SfurOBP11; ligand concentration 6, replicate 2) was 26035, the “Fluorescence intensity … OBP11” value (SfurOBP11; ligand concentration 6, replicate 3) was 26502 and the “Fluorescence intensity … OBP11” value (SfurOBP11; ligand concentration 8, replicate 1) was 25045. For the same compound, the “Fluorescence intensity … OBP11” value (SfurOBP11; ligand concentration 8, replicate 2) was 25714, the “Fluorescence intensity … OBP11” value (SfurOBP11; ligand concentration 8, replicate 3) was 24376 and the “Fluorescence intensity … OBP11” value (SfurOBP11; ligand concentration 10, replicate 1) was 24885. The “Fluorescence intensity … OBP11” value (SfurOBP11; ligand concentration 10, replicate 2) was 24226, the “Fluorescence intensity … OBP11” value (SfurOBP11; ligand concentration 10, replicate 3) was 23566 and the “Fluorescence intensity … OBP11” value (SfurOBP11; ligand concentration 12, replicate 1) was 21957. For the same compound, the “Fluorescence intensity … OBP11” value (SfurOBP11; ligand concentration 12, replicate 2) was 22135, the “Fluorescence intensity … OBP11” value (SfurOBP11; ligand concentration 12, replicate 3) was 20925 and the “Fluorescence intensity … OBP11” value (SfurOBP11; ligand concentration 14, replicate 1) was 23062. The “Fluorescence intensity … OBP11” value (SfurOBP11; ligand concentration 14, replicate 2) was 21821, the “Fluorescence intensity … OBP11” value (SfurOBP11; ligand concentration 14, replicate 3) was 20452 and the “Fluorescence intensity … OBP11” value (SfurOBP11; ligand concentration 16, replicate 1) was 19007. The “Fluorescence intensity … OBP11” value (SfurOBP11; ligand concentration 16, replicate 2) was 19354, the “Fluorescence intensity … OBP11” value (SfurOBP11; ligand concentration 16, replicate 3) was 17450 and the “Fluorescence intensity … OBP11” value (SfurOBP11; ligand concentration 18, replicate 1) was 21957. The “Fluorescence intensity … OBP11” value (SfurOBP11; ligand concentration 18, replicate 2) was 23680, the “Fluorescence intensity … OBP11” value (SfurOBP11; ligand concentration 18, replicate 3) was 21455 and the “Fluorescence intensity … OBP11” value (SfurOBP11; ligand concentration 20, replicate 1) was 23354. The “Fluorescence intensity … OBP11” value (SfurOBP11; ligand concentration 20, replicate 2) was 26458, the “Fluorescence intensity … OBP11” value (SfurOBP11; ligand concentration 20, replicate 3) was 24921 and the “Fluorescence competitive binding assay, fluorescence intensity” value (SfurOBP3; ligand concentration 2) was 34223 and 34200 and 33767. The “Fluorescence competitive binding assay, fluorescence intensity” value (SfurOBP3; ligand concentration 4) was 34565 and 34966 and 35111, the “Fluorescence competitive binding assay, fluorescence intensity” value (SfurOBP3; ligand concentration 6) was 33473 and 32986 and 33557 and the “Fluorescence competitive binding assay, fluorescence intensity” value (SfurOBP3; ligand concentration 8) was 31804 and 31815 and 33904. For the same compound, the “Fluorescence competitive binding assay, fluorescence intensity” value (SfurOBP3; ligand concentration 10) was 31933 and 33856 and 32393, the “Fluorescence competitive binding assay, fluorescence intensity” value (SfurOBP3; ligand concentration 12) was 28357 and 30958 and 31303 and the “Fluorescence competitive binding assay, fluorescence intensity” value (SfurOBP3; ligand concentration 14) was 30291 and 29441 and 31149. For the same compound, the “Fluorescence competitive binding assay, fluorescence intensity” value (SfurOBP3; ligand concentration 16) was 26096 and 27512 and 26789, the “Fluorescence competitive binding assay, fluorescence intensity” value (SfurOBP3; ligand concentration 18) was 36577 and 32045 and 32081 and the “Fluorescence competitive binding assay, fluorescence intensity” value (SfurOBP3; ligand concentration 20) was 29304 and 29350 and 25941. The “binding affinity to SfurOBP3 (in words)” value (SfurOBP3; SfurOBP3) was “high binding affinities”, the pIC50 (SfurOBP3; SfurOBP3, protein and 1-NPN both 2.0 µM, competitor 2-20 µM, read-out: IC50) was 4.76 and the pIC50 (SfurOBP2; SfurOBP2, protein and 1-NPN both 2.0 µM, competitor 2-20 µM, read-out: IC50) was under 4.70. The “Fluorescence competitive binding assay, OBP2 (raw fluorescence reading)” value (SfurOBP2; ligand concentration 2 (unit not given), replicate column 1 of 3) was 18213, the “Fluorescence competitive binding assay, OBP2 (raw fluorescence reading)” value (SfurOBP2; ligand concentration 2 (unit not given), replicate column 2 of 3) was 17695 and the “Fluorescence competitive binding assay, OBP2 (raw fluorescence reading)” value (SfurOBP2; ligand concentration 2 (unit not given), replicate column 3 of 3) was 18887. The “Fluorescence competitive binding assay, OBP2 (raw fluorescence reading)” value (SfurOBP2; ligand concentration 4 (unit not given), replicate column 1 of 3) was 18465, the “Fluorescence competitive binding assay, OBP2 (raw fluorescence reading)” value (SfurOBP2; ligand concentration 4 (unit not given), replicate column 2 of 3) was 18805 and the “Fluorescence competitive binding assay, OBP2 (raw fluorescence reading)” value (SfurOBP2; ligand concentration 4 (unit not given), replicate column 3 of 3) was 18729. For the same compound, the “Fluorescence competitive binding assay, OBP2 (raw fluorescence reading)” value (SfurOBP2; ligand concentration 6 (unit not given), replicate column 1 of 3) was 17576, the “Fluorescence competitive binding assay, OBP2 (raw fluorescence reading)” value (SfurOBP2; ligand concentration 6 (unit not given), replicate column 2 of 3) was 17836 and the “Fluorescence competitive binding assay, OBP2 (raw fluorescence reading)” value (SfurOBP2; ligand concentration 6 (unit not given), replicate column 3 of 3) was 18066. The “Fluorescence competitive binding assay, OBP2 (raw fluorescence reading)” value (SfurOBP2; ligand concentration 8 (unit not given), replicate column 1 of 3) was 15752, the “Fluorescence competitive binding assay, OBP2 (raw fluorescence reading)” value (SfurOBP2; ligand concentration 8 (unit not given), replicate column 2 of 3) was 18865 and the “Fluorescence competitive binding assay, OBP2 (raw fluorescence reading)” value (SfurOBP2; ligand concentration 8 (unit not given), replicate column 3 of 3) was 17007. For the same compound, the “Fluorescence competitive binding assay, OBP2 (raw fluorescence reading)” value (SfurOBP2; ligand concentration 10 (unit not given), replicate column 1 of 3) was 16925, the “Fluorescence competitive binding assay, OBP2 (raw fluorescence reading)” value (SfurOBP2; ligand concentration 10 (unit not given), replicate column 2 of 3) was 17786 and the “Fluorescence competitive binding assay, OBP2 (raw fluorescence reading)” value (SfurOBP2; ligand concentration 10 (unit not given), replicate column 3 of 3) was 17356. The “Fluorescence competitive binding assay, OBP2 (raw fluorescence reading)” value (SfurOBP2; ligand concentration 12 (unit not given), replicate column 1 of 3) was 16049, the “Fluorescence competitive binding assay, OBP2 (raw fluorescence reading)” value (SfurOBP2; ligand concentration 12 (unit not given), replicate column 2 of 3) was 16437 and the “Fluorescence competitive binding assay, OBP2 (raw fluorescence reading)” value (SfurOBP2; ligand concentration 12 (unit not given), replicate column 3 of 3) was 16824. For the same compound, the “Fluorescence competitive binding assay, OBP2 (raw fluorescence reading)” value (SfurOBP2; ligand concentration 14 (unit not given), replicate column 1 of 3) was 15270, the “Fluorescence competitive binding assay, OBP2 (raw fluorescence reading)” value (SfurOBP2; ligand concentration 14 (unit not given), replicate column 2 of 3) was 15647 and the “Fluorescence competitive binding assay, OBP2 (raw fluorescence reading)” value (SfurOBP2; ligand concentration 14 (unit not given), replicate column 3 of 3) was 14905. For the same compound, the “Fluorescence competitive binding assay, OBP2 (raw fluorescence reading)” value (SfurOBP2; ligand concentration 16 (unit not given), replicate column 1 of 3) was 15319, the “Fluorescence competitive binding assay, OBP2 (raw fluorescence reading)” value (SfurOBP2; ligand concentration 16 (unit not given), replicate column 2 of 3) was 14300 and the “Fluorescence competitive binding assay, OBP2 (raw fluorescence reading)” value (SfurOBP2; ligand concentration 16 (unit not given), replicate column 3 of 3) was 16123. For the same compound, the “Fluorescence competitive binding assay, OBP2 (raw fluorescence reading)” value (SfurOBP2; ligand concentration 18 (unit not given), replicate column 1 of 3) was 15075, the “Fluorescence competitive binding assay, OBP2 (raw fluorescence reading)” value (SfurOBP2; ligand concentration 18 (unit not given), replicate column 2 of 3) was 15152 and the “Fluorescence competitive binding assay, OBP2 (raw fluorescence reading)” value (SfurOBP2; ligand concentration 18 (unit not given), replicate column 3 of 3) was 15228. The “Fluorescence competitive binding assay, OBP2 (raw fluorescence reading)” value (SfurOBP2; ligand concentration 20 (unit not given), replicate column 1 of 3) was 14131, the “Fluorescence competitive binding assay, OBP2 (raw fluorescence reading)” value (SfurOBP2; ligand concentration 20 (unit not given), replicate column 2 of 3) was 14026 and the “Fluorescence competitive binding assay, OBP2 (raw fluorescence reading)” value (SfurOBP2; ligand concentration 20 (unit not given), replicate column 3 of 3) was 13920. The “Fluorescence competitive binding assay, fluorescence intensity” value (SfurOBP1; ligand concentration 2 (μM)) was 5574 and 5550 and 5238, the “Fluorescence competitive binding assay, fluorescence intensity” value (SfurOBP1; ligand concentration 4 (μM)) was 4710 and 5782 and 5020 and the “Fluorescence competitive binding assay, fluorescence intensity” value (SfurOBP1; ligand concentration 6 (μM)) was 5308 and 5201 and 5270. For the same compound, the “Fluorescence competitive binding assay, fluorescence intensity” value (SfurOBP1; ligand concentration 8 (μM)) was 4498 and 4902 and 5186, the “Fluorescence competitive binding assay, fluorescence intensity” value (SfurOBP1; ligand concentration 10 (μM)) was 4649 and 5445 and 5409 and the “Fluorescence competitive binding assay, fluorescence intensity” value (SfurOBP1; ligand concentration 12 (μM)) was 5039 and 5542 and 4835. The “Fluorescence competitive binding assay, fluorescence intensity” value (SfurOBP1; ligand concentration 14 (μM)) was 5190 and 5205 and 6069, the “Fluorescence competitive binding assay, fluorescence intensity” value (SfurOBP1; ligand concentration 16 (μM)) was 4320 and 5267 and 4703 and the “Fluorescence competitive binding assay, fluorescence intensity” value (SfurOBP1; ligand concentration 18 (μM)) was 5435 and 5537 and 6009. The “Fluorescence competitive binding assay, fluorescence intensity” value (SfurOBP1; ligand concentration 20 (μM)) was 6807 and 4924 and 6337 and the pIC50 (SfurOBP1; SfurOBP1, protein and 1-NPN both 2.0 µM, competitor 2-20 µM, read-out: IC50) was under 4.70.
